{
  "source": "patent US9279803B2",
  "about": "“Method of identifying patients not suitable for high-dose cyclophosphamide treatment” (The Johns Hopkins University, priority 2006, dated 2016)",
  "test_system": "white blood cell count (WBC)",
  "details": "preliminary results",
  "method": "Additionally, ALDH levels in the target peripheral lymphocytes of high-dose cyclophosphamide treatment may render those cells resistant to cyclophosphamide and can lead to worsened clinical outcome or disease relapse. In a series of multiple sclerosis (MS) patients, blood was analyzed to determine the relative levels of aldehyde dehydrogenease. The banked blood was obtained from MS patients prior to treatment with high-dose cyclophosphamide.",
  "data": [
    {"smiles": "O=P1(N(CCCl)CCCl)NCCCO1", "note": "(centres unmarked) [cyclophosphamide]", "values": [
      {"measurement": "nadir WBC following high-dose cyclophosphamide treatment", "setting": "MS patient who did not respond and relapsed, higher ALDH activity in banked blood", "result": 24},
      {"measurement": "WBC reached following high-dose cyclophosphamide treatment", "setting": "MS patient who responded, much lower ALDH activity in banked blood", "result": 0}
    ]}
  ]
}
